The values below come from patent publication US20110044938A1 (NYCOMED GMBH, priority 2006, published 2011).

Where only a bound is given, the exact number is not on record here.

In experiment [1] the test system is RKO (RKOp27) human colon adenocarcinoma cells. Briefly: Alamar Blue cell viability assay, anti-proliferative/cytotoxic activity on proliferating RKO subclones. The experiment is classed as cell-based. As to conditions: RKOp27, 72 h, RKO p27 uninduced (proliferating) cells, value = class bound given in Table A, read-out: −logIC50 RKO p27 uninduced (proliferating) (converted). The essentials:
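RKOp27 subclones (5000 cells/well) were exposed 24 h after seeding to semi-log compound dilutions in DMEM with 10% FCS, in quadruplicate, for 72 h at 37 °C. Viability was read by Alamar Blue fluorescence (544/590 nm) relative to untreated cells (1% DMSO medium). IC50 came from concentration-effect curves and is reported as −log IC50 [mol/l].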
A general note: The colour change of resazurin is a common sign of viable cells or microbes.

Experiment [2] has as its system subclones of RKO colon adenocarcinoma cells (RKOp27 or RKOp21) arrested by Ponasterone A. Briefly: Alamar Blue cell viability assay, cell cycle specific mode of action: cells arrested by ectopic p27Kip1 induced by Ponasterone A versus proliferating cells. It counts as cell-based. As to conditions: Homo sapiens, RKO p27 induced (arrested) cells, 10 μM Ponasterone A, 72 hours, value = class bound given in Table A, read-out: −logIC50 RKO p27 induced (arrested) (converted). The procedure, abridged: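 RKOp27 or RKOp21 cells, 15000/well in DMEM/10% FCS, either arrested by p27Kip1 induced with 10 μM Ponasterone A or proliferating without inducer; compound added after 24 h, 72 h at 37° C. Alamar Blue fluorescence (544/590 nm), viability as % of untreated cells; −log IC50 reported.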

Turning to `COc1cccc(CCC(=O)Nc2sc3c(c2C#N)CCC(OC(=O)NCc2cn(C)cn2)C3)c1` (stereo not drawn) [Example 222, (1-Methyl-1H-imidazol-4-ylmethyl)-carbamic acid 3-cyano-2-[3-(3-methoxy-phenyl)-propanoylamino]-4,5,6,7-tetrahydro-benzo[b]thiophen-6-yl ester], the IC50 in experiment [1] is 501 to 2000 nM; in experiment [2], at least 100000 nM.

Turning to `COc1cccc(CCC(=O)Nc2sc3c(c2C#N)CCC(OC(=O)NCc2cnn(C)c2)C3)c1` (stereo not drawn) [Example 223, (1-Methyl-1H-pyrazol-4-ylmethyl)-carbamic acid 3-cyano-2-[3-(3-methoxy-phenyl)-propanoylamino]-4,5,6,7-tetrahydro-benzo[b]thiophen-6-yl ester], the IC50 is at most 501 nM in experiment [1] and at least 100000 nM in experiment [2].

For `COc1cccc(CCC(=O)Nc2sc3c(c2C#N)CCC(OC(=O)NCc2cc(C)on2)C3)c1` (stereo not drawn) [Example 224, (5-Methyl-isoxazol-3-ylmethyl)-carbamic acid 3-cyano-2-[3-(3-methoxy-phenyl)-propanoylamino]-4,5,6,7-tetrahydro-benzo[b]thiophen-6-yl ester], the IC50 in experiment [1] was 501 to 2000 nM; in experiment [2], at least 100000 nM.

In the case of `COc1cccc(CCC(=O)Nc2sc3c(c2C#N)CCC(OC(=O)NCC2CCCO2)C3)c1` (stereo not drawn) [Example 225, (Tetrahydro-furan-2-ylmethyl)-carbamic acid 3-cyano-2-[3-(3-methoxy-phenyl)-propanoylamino]-4,5,6,7-tetrahydro-benzo[b]thiophen-6-yl ester], the IC50 in experiment [1] is 501 to 2000 nM; in experiment [2], at least 100000 nM.

Take `COc1cccc(CCC(=O)Nc2sc3c(c2C#N)CCC(OC(=O)NCc2cc(C)nn2C)C3)c1` (stereo not drawn) [Example 226, (2,5-Dimethyl-2H-pyrazol-3-ylmethyl)-carbamic acid 3-cyano-2-[3-(3-methoxy-phenyl)-propanoylamino]-4,5,6,7-tetrahydro-benzo[b]thiophen-6-yl ester]: the IC50 in experiment [1] was at most 501 nM; in experiment [2], at least 100000 nM.

On to `COc1cccc(CCC(=O)Nc2sc3c(c2C#N)CCC(OC(=O)NCc2cnoc2C)C3)c1` (stereo not drawn) [Example 227, (5-Methyl-isoxazol-4-ylmethyl)-carbamic acid 3-cyano-2-[3-(3-methoxy-phenyl)-propanoylamino]-4,5,6,7-tetrahydro-benzo[b]thiophen-6-yl ester], for which the IC50 in experiment [1] was at most 501 nM; in experiment [2] it was at least 100000 nM.

For the molecule `COc1cccc(CCC(=O)Nc2sc3c(c2C#N)CCC(OC(=O)NCc2conc2C)C3)c1` (stereo not drawn) [Example 228, (3-Methyl-isoxazol-4-ylmethyl)-carbamic acid 3-cyano-2-[3-(3-methoxy-phenyl)-propanoylamino]-4,5,6,7-tetrahydro-benzo[b]thiophen-6-yl ester], the IC50 in experiment [1] was at most 501 nM; in experiment [2], at least 100000 nM.

For the molecule `COc1cccc(CCC(=O)Nc2sc3c(c2C#N)CCC(OC(=O)NCc2ccno2)C3)c1` (stereo not drawn) [Example 229, Isoxazol-5-ylmethyl-carbamic acid 3-cyano-2-[3-(3-methoxy-phenyl)-propanoylamino]-4,5,6,7-tetrahydro-benzo[b]thiophen-6-yl ester], the IC50 in experiment [1] is 501 to 2000 nM; in experiment [2], at least 100000 nM.

`COc1cccc(CCC(=O)Nc2sc3c(c2C#N)CCC(OC(=O)NCc2cc(C)no2)C3)c1` (stereo not drawn) [Example 230, (3-Methyl-isoxazol-5-ylmethyl)-carbamic acid 3-cyano-2-[3-(3-methoxy-phenyl)-propanoylamino]-4,5,6,7-tetrahydro-benzo[b]thiophen-6-yl ester]: the IC50 in experiment [1] is 501 to 2000 nM; in experiment [2] it was at least 100000 nM.

Take `COc1cccc(CCC(=O)Nc2sc3c(c2C#N)CCC(OC(=O)N2CCOCC2)C3)c1` (stereo not drawn) [Example 231, Morpholine-4-carboxylic acid 3-cyano-2-[3-(3-methoxy-phenyl)-propanoylamino]-4,5,6,7-tetrahydro-benzo[b]thiophen-6-yl ester]: the IC50 in experiment [1] is at most 501 nM; in experiment [2], at least 100000 nM.

For `COc1cccc(CCC(=O)Nc2sc3c(c2C#N)CCC(OC(=O)NCc2csc(C)n2)C3)c1` (stereo not drawn) [Example 232, (2-Methyl-thiazol-4-ylmethyl)-carbamic acid 3-cyano-2-[3-(3-methoxy-phenyl)-propanoylamino]-4,5,6,7-tetrahydro-benzo[b]thiophen-6-yl ester], the IC50 in experiment [1] was 501 to 2000 nM; in experiment [2], at least 100000 nM.

For `CNC(=O)OCC1CCc2c(sc(NC(=O)CCc3cccc(OC)c3)c2C#N)C1` (stereo not drawn) [Example 233, Methyl-carbamic acid 3-cyano-2-[3-(3-methoxy-phenyl)-propanoylamino]-4,5,6,7-tetrahydro-benzo[b]thiophen-6-ylmethyl ester], the IC50 in experiment [1] is at most 501 nM; in experiment [2] it was at least 100000 nM.

For `COCCNC(=O)OCC1CCc2c(sc(NC(=O)CCc3cccc(OC)c3)c2C#N)C1` (stereo not drawn) [Example 234, (2-Methoxy-ethyl)-carbamic acid 3-cyano-2-[3-(3-methoxy-phenyl)-propanoylamino]-4,5,6,7-tetrahydro-benzo[b]thiophen-6-ylmethyl ester], the IC50 in experiment [1] is at most 501 nM; in experiment [2] it was at least 100000 nM.

Take `COc1cccc(CCC(=O)Nc2sc3c(c2C#N)CCC(COC(=O)NCc2ccccn2)C3)c1` (stereo not drawn) [Example 235, Pyridin-2-ylmethyl-carbamic acid 3-cyano-2-[3-(3-methoxy-phenyl)-propanoylamino]-4,5,6,7-tetrahydro-benzo[b]thiophen-6-ylmethyl ester]: the IC50 was 501 to 2000 nM in experiment [1] and at least 100000 nM in experiment [2].

On to `COc1cccc(CCC(=O)Nc2sc3c(c2C#N)CCC(COC(=O)NCCn2ccnc2)C3)c1` (stereo not drawn) [Example 236, (2-Imidazol-1-yl-ethyl)-carbamic acid 3-cyano-2-[3-(3-methoxy-phenyl)-propanoylamino]-4,5,6,7-tetrahydro-benzo[b]thiophen-6-ylmethyl ester], for which the IC50 in experiment [1] is 501 to 2000 nM; in experiment [2], at least 100000 nM.

As for `COc1cccc(CCC(=O)Nc2sc3c(c2C#N)CCC(COC(=O)NCc2ccnn2C)C3)c1` (stereo not drawn) [Example 237, (2-Methyl-2H-pyrazol-3-ylmethyl)-carbamic acid 3-cyano-2-[3-(3-methoxy-phenyl)-propanoylamino]-4,5,6,7-tetrahydro-benzo[b]thiophen-6-ylmethyl ester], the IC50 in experiment [1] was 501 to 2000 nM; in experiment [2] it was at least 100000 nM.

Take `COc1cccc(CCC(=O)Nc2sc3c(c2C#N)CCC(COC(=O)NCc2cn(C)cn2)C3)c1` (stereo not drawn) [Example 238, (1-Methyl-1H-imidazol-4-ylmethyl)-carbamic acid 3-cyano-2-[3-(3-methoxy-phenyl)-propanoylamino]-4,5,6,7-tetrahydro-benzo[b]thiophen-6-ylmethyl ester]: the values for the IC50 in experiment [1] and in experiment [2] were 501 to 2000 nM and at least 100000 nM, respectively.

On to `COc1cccc(CCC(=O)Nc2sc3c(c2C#N)CCC(COC(=O)NCc2cnn(C)c2)C3)c1` (stereo not drawn) [Example 239, (1-Methyl-1H-pyrazol-4-ylmethyl)-carbamic acid 3-cyano-2-[3-(3-methoxy-phenyl)-propanoylamino]-4,5,6,7-tetrahydro-benzo[b]thiophen-6-ylmethyl ester], for which the results for the IC50 in experiment [1] and in experiment [2] were at most 501 nM and at least 100000 nM, respectively.

In the case of `COc1cccc(CCC(=O)Nc2sc3c(c2C#N)CCC(COC(=O)NCc2cc(C)on2)C3)c1` (stereo not drawn) [Example 240, (5-Methyl-isoxazol-3-ylmethyl)-carbamic acid 3-cyano-2-[3-(3-methoxy-phenyl)-propanoylamino]-4,5,6,7-tetrahydro-benzo[b]thiophen-6-ylmethyl ester], the IC50 in experiment [1] was at most 501 nM; in experiment [2], at least 100000 nM.

On to `COc1cccc(CCC(=O)Nc2sc3c(c2C#N)CCC(COC(=O)NCC2CCCO2)C3)c1` (stereo not drawn) [Example 241, (Tetrahydro-furan-2-ylmethyl)-carbamic acid 3-cyano-2-[3-(3-methoxy-phenyl)-propanoylamino]-4,5,6,7-tetrahydro-benzo[b]thiophen-6-ylmethyl ester], for which the IC50 was 501 to 2000 nM in experiment [1] and at least 100000 nM in experiment [2].

As for `COc1cccc(CCC(=O)Nc2sc3c(c2C#N)CCC(COC(=O)NCc2cnoc2C)C3)c1` (stereo not drawn) [Example 242, (5-Methyl-isoxazol-4-ylmethyl)-carbamic acid 3-cyano-2-[3-(3-methoxy-phenyl)-propanoylamino]-4,5,6,7-tetrahydro-benzo[b]thiophen-6-ylmethyl ester], the IC50 in experiment [1] is at most 501 nM; in experiment [2] it was at least 100000 nM.

As for `COc1cccc(CCC(=O)Nc2sc3c(c2C#N)CCC(COC(=O)NCc2ccno2)C3)c1` (stereo not drawn) [Example 243, Isoxazol-5-ylmethyl-carbamic acid 3-cyano-2-[3-(3-methoxy-phenyl)-propanoylamino]-4,5,6,7-tetrahydro-benzo[b]thiophen-6-ylmethyl ester], the IC50 is 501 to 2000 nM in experiment [1] and at least 100000 nM in experiment [2].

For `COc1cccc(CCC(=O)Nc2sc3c(c2C#N)CCC(COC(=O)NCc2cc(C)no2)C3)c1` (stereo not drawn) [Example 244, (3-Methyl-isoxazol-5-ylmethyl)-carbamic acid 3-cyano-2-[3-(3-methoxy-phenyl)-propanoylamino]-4,5,6,7-tetrahydro-benzo[b]thiophen-6-ylmethyl ester], the values for the IC50 in experiment [1] and in experiment [2] were at most 501 nM and at least 100000 nM, respectively.

Consider `COc1cccc(CCC(=O)Nc2sc3c(c2C#N)CCC(COC(=O)N2CCOCC2)C3)c1` (stereo not drawn) [Example 245, Morpholine-4-carboxylic acid 3-cyano-2-[3-(3-methoxy-phenyl)-propanoylamino]-4,5,6,7-tetrahydro-benzo[b]thiophen-6-ylmethyl ester], for which the values for the IC50 in experiment [1] and in experiment [2] were at most 501 nM and at least 100000 nM, respectively.
